Measurements published in patent US9562035B2, “Benzamide derivative useful as FASN inhibitors for the treatment of cancer” (Janssen Pharmaceutica NV, priority 2013, dated 2017).

Legend:
[1] = system: A2780 ovarian cells; assay: A2780 Ovarian Cell Proliferation Assay in Lipid Reduced Medium, without Palmitate; type: cell-based; settings: Homo sapiens, A2780; lipid reduced medium, without palmitate, 96 h, MTT; read-out: Proliferation A2780 w/o Palmitate pIC50 (converted)
Summary of the method: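 A2780 cells were seeded in 10% FCS medium and switched next day to 10% lipid-reduced serum without palmitate. Compounds at 0.01–30 μM were added with 0.2% DMSO, 0.2% fatty-acid-free BSA and 0.25% ethanol final. After 96 h, MTT absorbance at 544 nm was normalized to plate controls, and IC50/pIC50 came from a 4-parameter logistic fit.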

[2] = system: A2780 ovarian cells; assay: A2780 Ovarian Cell Proliferation Assay in Lipid Reduced Medium, with Palmitate (control); type: cell-based; settings: Homo sapiens, A2780; lipid reduced medium, 25 μM palmitate, 96 h, MTT; read-out: Proliferation A2780 with Palmitate pIC50 (converted)
Summary of the method: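 A2780 cells were seeded in RPMI1640 with 10% FCS, then switched next day to medium with 10% lipid-reduced serum. Compound was added with final 25 μM palmitate, 0.2% fatty-acid-free BSA and 0.2% DMSO, and incubated 96 h at 37 °C. Read-out was MTT absorbance at 544 nm; pIC50 = −log(IC50) from curve fit.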

[3] = target: T1, hFASN enzyme (full length) (Homo sapiens, UniProt P49327); assay: Fatty Acid Synthase (FASN) Inhibition Scintillation Proximity Assay; type: biochemical; settings: for IC50: mean where tested more than once, ~ = standard error of pIC50 larger than 0.5; for inhibition at 10 µM: read-out: FASN % Effect @1E−05M
T1 construct: 10 μL hFASN enzyme (full length, 300 ng, purified in house); made in house
Summary of the method: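 Purified full-length human FASN (300 ng) incubated 60 min at room temperature with NADPH, [3H]-acetyl-CoA and malonyl-CoA in 100 mM KH2PO4 pH 7.5, 1 mM DTT; compound at 30 μM to 0.01 μM. [3H]-palmitate captured by SPA imaging beads; IC50 from 4-parameter fit, reported as pIC50.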

[4] = target: T2, FASN Keto-reductase Domain (Homo sapiens, UniProt P49327); assay: Fatty Acid Synthase Keto-Reductase Domain (FASN KR) Inhibition; type: biochemical; settings: mean where tested more than once; read-out: FASN K-R Domain pIC50 (converted)
T2 construct: 10 μL hFASN enzyme (full length, 300 ng, purified in house) and 360 μM NADPH; made in house
Summary of the method: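 Full-length human FASN (300 ng) in 100 mM KH2PO4 pH 7.5 with 360 μM NADPH and 180 mM ethyl acetoacetate (stock); A340 decrease read over 20 min at room temperature.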

T2 sequence (P49327 whole entry, the tested form may be a part): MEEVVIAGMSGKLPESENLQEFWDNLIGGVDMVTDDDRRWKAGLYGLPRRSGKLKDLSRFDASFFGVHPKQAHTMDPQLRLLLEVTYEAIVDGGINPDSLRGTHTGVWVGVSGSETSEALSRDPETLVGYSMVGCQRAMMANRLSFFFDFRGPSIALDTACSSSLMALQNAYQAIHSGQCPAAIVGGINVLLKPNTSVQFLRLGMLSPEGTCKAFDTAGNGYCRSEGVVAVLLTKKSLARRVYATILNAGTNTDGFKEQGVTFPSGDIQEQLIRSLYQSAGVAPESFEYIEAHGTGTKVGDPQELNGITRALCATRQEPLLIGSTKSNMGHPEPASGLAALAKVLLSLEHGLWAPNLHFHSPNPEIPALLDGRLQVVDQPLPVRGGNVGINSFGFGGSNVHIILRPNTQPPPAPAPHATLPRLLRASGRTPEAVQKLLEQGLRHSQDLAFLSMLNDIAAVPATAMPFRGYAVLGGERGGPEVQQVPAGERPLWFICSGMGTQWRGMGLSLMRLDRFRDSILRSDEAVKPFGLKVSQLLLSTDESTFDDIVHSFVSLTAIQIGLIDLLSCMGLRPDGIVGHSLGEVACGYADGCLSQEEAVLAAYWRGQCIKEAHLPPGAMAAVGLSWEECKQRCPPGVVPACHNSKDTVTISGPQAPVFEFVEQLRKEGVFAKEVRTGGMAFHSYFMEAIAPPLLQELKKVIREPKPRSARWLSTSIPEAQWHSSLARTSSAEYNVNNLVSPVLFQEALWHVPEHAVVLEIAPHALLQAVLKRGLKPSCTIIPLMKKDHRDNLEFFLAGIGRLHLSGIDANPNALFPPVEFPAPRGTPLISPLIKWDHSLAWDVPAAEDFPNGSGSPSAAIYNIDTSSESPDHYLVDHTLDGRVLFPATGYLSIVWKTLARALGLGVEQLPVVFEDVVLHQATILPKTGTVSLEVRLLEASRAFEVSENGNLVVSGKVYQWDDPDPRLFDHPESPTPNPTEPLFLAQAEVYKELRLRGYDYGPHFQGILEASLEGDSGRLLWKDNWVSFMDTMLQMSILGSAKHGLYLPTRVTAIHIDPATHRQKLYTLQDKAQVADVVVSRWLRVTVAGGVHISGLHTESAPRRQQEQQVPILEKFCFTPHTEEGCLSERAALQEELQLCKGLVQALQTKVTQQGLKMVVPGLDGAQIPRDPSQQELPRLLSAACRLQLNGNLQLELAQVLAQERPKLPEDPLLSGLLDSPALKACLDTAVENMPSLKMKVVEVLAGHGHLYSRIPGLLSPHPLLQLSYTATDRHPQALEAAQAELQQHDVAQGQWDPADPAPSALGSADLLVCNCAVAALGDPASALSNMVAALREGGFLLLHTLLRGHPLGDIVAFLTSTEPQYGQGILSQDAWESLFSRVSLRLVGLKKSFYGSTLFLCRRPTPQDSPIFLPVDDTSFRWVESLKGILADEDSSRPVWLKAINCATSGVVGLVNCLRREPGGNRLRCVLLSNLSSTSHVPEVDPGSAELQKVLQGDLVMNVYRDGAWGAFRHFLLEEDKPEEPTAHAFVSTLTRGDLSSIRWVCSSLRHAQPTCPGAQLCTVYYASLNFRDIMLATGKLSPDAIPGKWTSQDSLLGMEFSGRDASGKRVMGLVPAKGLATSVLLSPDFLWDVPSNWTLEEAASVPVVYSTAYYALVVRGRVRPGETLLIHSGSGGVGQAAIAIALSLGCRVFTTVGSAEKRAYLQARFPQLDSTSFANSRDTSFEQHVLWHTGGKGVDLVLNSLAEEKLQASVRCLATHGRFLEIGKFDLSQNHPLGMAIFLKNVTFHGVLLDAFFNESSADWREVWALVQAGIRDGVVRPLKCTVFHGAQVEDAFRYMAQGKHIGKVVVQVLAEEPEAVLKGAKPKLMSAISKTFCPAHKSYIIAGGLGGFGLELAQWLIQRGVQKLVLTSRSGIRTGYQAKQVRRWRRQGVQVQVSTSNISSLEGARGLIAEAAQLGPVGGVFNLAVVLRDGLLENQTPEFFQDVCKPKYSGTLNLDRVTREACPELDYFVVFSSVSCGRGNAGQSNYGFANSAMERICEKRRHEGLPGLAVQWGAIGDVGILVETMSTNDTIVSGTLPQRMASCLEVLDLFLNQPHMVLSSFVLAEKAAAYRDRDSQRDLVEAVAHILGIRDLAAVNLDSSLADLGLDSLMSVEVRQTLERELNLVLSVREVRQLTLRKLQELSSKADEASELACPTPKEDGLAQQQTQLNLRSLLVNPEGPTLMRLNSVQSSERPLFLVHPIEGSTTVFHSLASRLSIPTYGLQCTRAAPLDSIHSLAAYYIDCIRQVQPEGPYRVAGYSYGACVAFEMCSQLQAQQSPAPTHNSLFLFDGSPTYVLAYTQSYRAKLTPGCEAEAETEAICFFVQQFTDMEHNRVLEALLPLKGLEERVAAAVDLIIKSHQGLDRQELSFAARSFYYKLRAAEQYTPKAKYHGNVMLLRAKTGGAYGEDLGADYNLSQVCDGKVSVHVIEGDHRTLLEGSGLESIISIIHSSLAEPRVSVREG
T1 sequence (P49327 whole entry): as the sequence (P49327 whole entry, the tested form may be a part) above

Row | SMILES | IC50 [1] [nM] | IC50 [2] [nM] | IC50 [3] [nM] | inhibition at 10 µM [3] [%] | IC50 [4] [nM]
1 | Cc1ccc(C(=O)N2CC(c3ccc(-c4ccncc4N)cc3)C2)cc1NC(=O)c1ccc(Cl)nc1 [Compound 266, N-(5-(3-(4-(3-aminopyridin-4-yl)phenyl)azetidine-1-carbonyl)-2-methylphenyl)-6-chloronicotinamide] | ~41.7 | > 10000 | 38 | 112 | 107
2 | Cc1ccc(C(=O)N2CCC(c3ccc(-c4cnn(C)c4)nc3)CC2)cc1NC(=O)c1ccc(NC(C)C)nc1 [Compound 268, 6-(isopropylamino)-N-(2-methyl-5-(4-(6-(1-methyl-1H-pyrazol-4-yl)pyridin-3-yl)piperidine-1-carbonyl)phenyl)nicotinamide] | 537 | > 10000 | 166 | 104 | 1350
3 | Cc1ccc(C(=O)N2CC(c3ccc(-c4ccc5c(cnn5C)c4)cc3)C2)cc1NC(=O)c1ccc(NC(C)C)nc1 [Compound 16, 6-(isopropylamino)-N-(2-methyl-5-(3-(4-(1-methyl-1H-indazol-5-yl)phenyl)azetidine-1-carbonyl)phenyl)nicotinamide] | 1410 | > 10000 | 95.5 | 106 | 95.5
4 | Cc1ccc(C(=O)N2CCC(c3ccc4[nH]c(=O)sc4c3)CC2)cc1NC(=O)c1ccc(Cl)nc1 [Compound 48, 6-chloro-N-(2-methyl-5-(4-(2-oxo-2,3-dihydrobenzo[d]thiazol-6-yl)piperidine-1-carbonyl)phenyl)nicotinamide] | 1410 | > 10000 | 269 | 92 | 457
5 | Cc1ccc(C(=O)N2CCC(c3ccc(-c4ccc(F)cc4)cc3)CC2)cc1NC(=O)c1ccc(NC(C)C)nc1 [Compound 250, N-(5-(4-(4′-fluoro-[1,1′-biphenyl]-4-yl)piperidine-1-carbonyl)-2-methylphenyl)-6-(isopropylamino)nicotinamide] | 490 | 1620 | 229 | 65 | 209
6 | Cc1ccc(C(=O)N2CC(c3ccc(-c4ccnn4C)cc3)C2)cc1NC(=O)c1ccc2ccccc2n1 [Compound 55, N-(2-methyl-5-(3-(4-(1-methyl-1H-pyrazol-5-yl)phenyl)azetidine-1-carbonyl)phenyl)quinoline-2-carboxamide] | ~77.6 | ~85.1 | 437 | 86 | 513
7 | Cc1ccc(C(=O)N2CCC(c3ccc(-c4cnn(C)c4)cn3)CC2)cc1NC(=O)c1ccc(Cl)nc1 [Compound 263, 6-chloro-N-(2-methyl-5-(4-(5-(1-methyl-1H-pyrazol-4-yl)pyridin-2-yl)piperidine-1-carbonyl)phenyl)nicotinamide] | 170 | > 10000 | 91.2 | 111 | 479
8 | Cc1ccc(C(=O)N2CCC(c3ccc(-c4cnn(C)c4)nc3)CC2)cc1NC(=O)c1ccc(Cl)nc1 [Compound 270, 6-chloro-N-(2-methyl-5-(4-(6-(1-methyl-1H-pyrazol-4-yl)pyridin-3-yl)piperidine-1-carbonyl)phenyl)nicotinamide] | 1480 | > 10000 | 589 | 93 | 2750
9 | Cc1ccc(C(=O)N2CCC(c3ccc(-n4ccnc4)cc3)CC2)cc1NC(=O)c1ccc(Cl)nc1 [Compound #11, N-(5-(4-(4-(1H-imidazol-1-yl)phenyl)piperidine-1-carbonyl)-2-methylphenyl)-6-chloronicotinamide] | 56.2 | > 10000 | 27.5 | 106 | 49
10 | COc1ccc(-c2ccc(C3CCN(C(=O)c4ccc(C)c(NC(=O)c5ccc(NC(C)C)nc5)c4)CC3)cc2)cc1 [Compound 199, 6-(isopropylamino)-N-(5-(4-(4′-methoxy-[1,1′-biphenyl]-4-yl)piperidine-1-carbonyl)-2-methylphenyl)nicotinamide] | 562 | 617 | ~676 | 59 | 724

Second part, the compound after the results:

Row | IC50 [1] [nM] | IC50 [2] [nM] | IC50 [3] [nM] | inhibition at 10 µM [3] [%] | IC50 [4] [nM] | SMILES
11 | 107 | > 10000 | 46.8 | 106 | 110 | Cc1ccc(C(=O)N2CC(c3ccc(-c4cnn(C)c4)cc3)C2)cc1NC(=O)C1CC1 [Compound 142, N-(2-methyl-5-(3-(4-(1-methyl-1H-pyrazol-4-yl)phenyl)azetidine-1-carbonyl)phenyl)cyclopropanecarboxamide]
12 | 372 | > 10000 | 282 | 97 | 977 | Cc1ccc(C(=O)N2CCC(c3ccc(-c4cnn(C)c4)cc3)C2)cc1NC(=O)c1ccc(Cl)nc1 (stereo not shown) [Compound 203, 6-chloro-N-(2-methyl-5-(3-(4-(1-methyl-1H-pyrazol-4-yl)phenyl)pyrrolidine-1-carbonyl)phenyl)nicotinamide]
13 | 1000 | 8510 | 380 | 87 | 794 | Cc1ccc(C(=O)N2CCC(c3ccc(-c4cnn(C)c4)cc3)CC2)cc1NC(=O)c1c(Cl)cccc1Cl [Compound 121, 2,6-dichloro-N-(2-methyl-5-(4-(4-(1-methyl-1H-pyrazol-4-yl)phenyl)piperidine-1-carbonyl)phenyl)benzamide]
14 | 38.9 | ~10000 | 49 | 108 | 77.6 | CCCCC(C)N1CCC(C(=O)Nc2cc(C(=O)N3CCC(c4ccc(-c5cnn(C)c5)cc4)CC3)ccc2C)CC1 (stereo not shown) [Compound 175, 1-(hexan-2-yl)-N-(2-methyl-5-(4-(4-(1-methyl-1H-pyrazol-4-yl)phenyl)piperidine-1-carbonyl)phenyl)piperidine-4-carboxamide]
15 | 257 | > 10000 | 74.1 | 102 | 251 | Cc1ccc(C(=O)N2CCC(c3ccc(-c4cnn(C)c4)cc3)CC2)cc1NC(=O)C1CN(CC(C)(C)C)C1 [Compound 190, N-(2-methyl-5-(4-(4-(1-methyl-1H-pyrazol-4-yl)phenyl)piperidine-1-carbonyl)phenyl)-1-neopentylazetidine-3-carboxamide]
16 | 263 | 3470 | 26.3 | 105 | 151 | Cc1ccc(C(=O)N2CCC(c3ccc(-c4cnn(C)c4)cc3)CC2)cc1NC(=O)c1cccc(Cl)c1 [Compound 95, 3-chloro-N-(2-methyl-5-(4-(4-(1-methyl-1H-pyrazol-4-yl)phenyl)piperidine-1-carbonyl)phenyl)benzamide]
17 | 162 | 6760 | 53.7 | 97 | 77.6 | Cc1ccc(C(=O)N2CCC(c3ccc(-c4cnn(C)c4)cc3)CC2)cc1NC(=O)c1ccc(Cl)c(Cl)c1 [Compound 123, 3,4-dichloro-N-(2-methyl-5-(4-(4-(1-methyl-1H-pyrazol-4-yl)phenyl)piperidine-1-carbonyl)phenyl)benzamide]
18 | 15.8 | > 10000 | 11.2 | 109 | 25.1 | Cc1ccc(C(=O)N2CCC(c3ccc(-c4cnn(C)c4)cc3)CC2)cc1NC(=O)c1ccc(N2CCOCC2)nc1 [Compound #91, N-(2-methyl-5-(4-(4-(1-methyl-1H-pyrazol-4-yl)phenyl)piperidine-1-carbonyl)phenyl)-6-morpholinonicotinamide]
19 | 69.2 | 10500 | 21.9 | 103 | 33.9 | Cc1ccc(C(=O)N2CCC(c3ccc(-c4cnn(C)c4)cc3)CC2)cc1NC(=O)c1ccc(C(F)(F)F)cc1 [Compound 145, N-(2-methyl-5-(4-(4-(1-methyl-1H-pyrazol-4-yl)phenyl)piperidine-1-carbonyl)phenyl)-4-(trifluoromethyl)benzamide]
20 | 87.1 | > 10000 | 16.2 | 107 | 55 | COc1ccc(C(=O)Nc2cc(C(=O)N3CCC(c4ccc(-c5cnn(C)c5)cc4)CC3)ccc2C)cc1O [Compound 135, 3-hydroxy-4-methoxy-N-(2-methyl-5-(4-(4-(1-methyl-1H-pyrazol-4-yl)phenyl)piperidine-1-carbonyl)phenyl)benzamide]
